{"source": "patent US11980616B2", "about": "“Treating liver disease by selectively eliminating senescent cells” (Buck Institute for Research on Aging, priority 2014, dated 2024)", "system": "p16-3MR mice fed a high fat diet", "experiment": "Glucose tolerance and insulin sensitivity in p16-3MR mice fed a high fat diet", "assay_type": "in vivo, mouse", "experimental": "Groups of p16-3MR mice (n=9) were fed a high fat diet for four months mice or a regular chow diet. Animals were then treated with ganciclovir (3 rounds of 25 mg/kg ganciclovir administered daily for five consecutive days) or vehicle. A glucose bolus was given at time zero, and blood glucose was monitored at 20, 30, 60, and 120 minutes after delivering glucose to determine glucose disposal (see FIG. 69A). […] Insulin sensitivity was also determined (Insulin Tolerance Testing (ITT)). […] Changes in weight, body composition, and food intake were also monitored.", "key": {"[1]": {"settings": "3 rounds of 25 mg/kg daily for five days, vs vehicle"}}}
{"smiles": "Nc1nc(O)c2ncn(COC(CO)CO)c2n1", "note": "[ganciclovir]", "values": [{"measurement": "Insulin Tolerance Testing: blood glucose", "setting": "0, 14, 30, 60, and 120 minutes", "value": "greater decrease in blood glucose"}, {"measurement": "Glucose tolerance test AUC", "setting": "[1]", "value": "significantly lower"}, {"measurement": "Hemoglobin A1c", "setting": "[1]", "value": "lower"}]}
